From patent publication US7786141B2 (Vertex Pharmaceuticals Incorporated, priority 2004, dated 2010)

How the values were obtained:
[1] = biological target: T1, M4 muscarinic receptor (Homo sapiens, UniProt P08173); test: Functional mobilization of intracellular calcium (FLIPR) in M4-CHO cells; assay type: cell-based; settings: M4 receptor, calcium mobilization; for Emax: read-out: M4 Efficacy
T1 construct: expressed in transfected cells; host or cells: CHO (M4-CHO)
T1 sequence (P08173 1-479): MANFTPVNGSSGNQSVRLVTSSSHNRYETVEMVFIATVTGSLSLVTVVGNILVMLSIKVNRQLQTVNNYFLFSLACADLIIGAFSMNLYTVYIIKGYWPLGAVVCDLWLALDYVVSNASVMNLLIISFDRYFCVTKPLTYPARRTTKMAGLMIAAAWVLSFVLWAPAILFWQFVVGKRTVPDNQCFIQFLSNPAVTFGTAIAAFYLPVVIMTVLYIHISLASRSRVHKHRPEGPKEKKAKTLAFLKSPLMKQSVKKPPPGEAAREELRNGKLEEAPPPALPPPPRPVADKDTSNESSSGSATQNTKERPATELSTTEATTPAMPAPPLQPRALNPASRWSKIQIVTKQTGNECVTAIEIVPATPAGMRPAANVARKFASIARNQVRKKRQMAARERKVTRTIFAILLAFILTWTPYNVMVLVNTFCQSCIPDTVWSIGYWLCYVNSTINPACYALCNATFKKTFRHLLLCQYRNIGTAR
Outline: (§1)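 CHO cells stably expressing human M1 or M4 receptor were loaded with Fluo-3 AM (or Calcium 3 dye) in Hepes-buffered saline, pH 7.4, with 1 mM probenecid, 0.5% final DMSO. Agonist mode: compound added directly; antagonist mode: 15 min preincubation before carbachol at EC80. FLIPR fluorescence recorded 60 sec.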

[2] = biological target: T2, M1 muscarinic receptor (Homo sapiens, UniProt P11229); test: Functional mobilization of intracellular calcium (FLIPR) in M1-CHO cells; assay type: cell-based; settings: M1 receptor, calcium mobilization; for Emax: read-out: M1 Efficacy
T2 construct: expressed in transfected cells; host or cells: CHO (M1-CHO)
T2 sequence (P11229 1-460): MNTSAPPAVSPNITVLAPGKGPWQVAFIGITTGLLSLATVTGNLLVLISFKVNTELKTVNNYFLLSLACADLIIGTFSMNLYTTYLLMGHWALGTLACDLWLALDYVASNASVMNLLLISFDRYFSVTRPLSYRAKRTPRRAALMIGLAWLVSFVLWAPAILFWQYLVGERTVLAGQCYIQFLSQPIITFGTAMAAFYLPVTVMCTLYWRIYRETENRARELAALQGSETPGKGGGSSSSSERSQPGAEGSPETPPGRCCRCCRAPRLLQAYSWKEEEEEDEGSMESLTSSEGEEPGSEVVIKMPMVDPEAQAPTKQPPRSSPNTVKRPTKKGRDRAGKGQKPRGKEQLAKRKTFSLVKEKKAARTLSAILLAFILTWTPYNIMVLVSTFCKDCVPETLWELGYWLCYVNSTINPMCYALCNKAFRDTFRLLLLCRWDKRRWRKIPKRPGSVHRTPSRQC
Outline: as §1

Compound | M4 Activity [1] | Emax [1] [%] | M1 Activity [2] | Emax [2] [%]
CC(=O)N1CC2(CCN(C3CC4CCC3C4)CC2)c2cc(C)ccc21 (centres unmarked) [compound 138] | x (activity was measured to be greater than 1.0 μM) | 65 to 85 | xxx (activity was measured to be less than 0.1 μM) | 65 to 85
CC(C)OC(=O)N1C2CCC1CC(N1CCC3(CC1)C(=O)Nc1ccccc13)C2 (centres unmarked) [compound 139] | xxx (activity was measured to be less than 0.1 μM) | > 85 | xxx (activity was measured to be less than 0.1 μM) | > 85
CC(=O)N1CC2(CCN(C3CCN(C(=O)OC4CCC4)CC3)CC2)c2cc(F)ccc21 [compound 140] | xxx (activity was measured to be less than 0.1 μM) | > 85 | xxx (activity was measured to be less than 0.1 μM) | > 85
CCOC(=O)N1CCC(N2CCC3(CC2)CN(C(C)=O)c2ccc(Cl)cc23)CC1 [compound 141] | xx (activity was measured to be between 0.1 μM and 1.0 μM) | > 85 | xxx (activity was measured to be less than 0.1 μM) | > 85
CCOC(=O)N1CCC(N2CCC3(CC2)CN(C(=O)C(C)C)c2ccc(F)cc23)CC1 [compound 142] | x (activity was measured to be greater than 1.0 μM) | > 85 | xxx (activity was measured to be less than 0.1 μM) | 65 to 85
CCOC(=O)N1CCC(N2CCC3(CC2)CN(C(=O)c2cccnc2)c2ccc(F)cc23)CC1 [compound 144] | xxx (activity was measured to be less than 0.1 μM) | > 85 | xxx (activity was measured to be less than 0.1 μM) | > 85
CCOC(=O)N1CCC(N2CCC3(CC2)CN(C(=O)OC(C)C)c2ccc(F)cc23)CC1 [compound 145] | x (activity was measured to be greater than 1.0 μM) | > 85 | xxx (activity was measured to be less than 0.1 μM) | > 85
CCOC(=O)N1CCC(N2CCC3(CC2)CN(C(C)=O)c2ccc(-c4ccccc4F)cc23)CC1 [compound 146] | xxx (activity was measured to be less than 0.1 μM) | > 85 | xxx (activity was measured to be less than 0.1 μM) | > 85
Clc1ccc2c(c1)C1(CCN(CC3CC4C=CC3C4)CC1)CN2 (centres unmarked) [compound 147] | xx (activity was measured to be between 0.1 μM and 1.0 μM) | > 85 | xxx (activity was measured to be less than 0.1 μM) | 65 to 85
CCOC(=O)N1C2CCC1CC(N1CCC3(CC1)C(=O)N(C)c1ccccc13)C2 (centres unmarked) [compound 149] | x (activity was measured to be greater than 1.0 μM) | > 85 | xxx (activity was measured to be less than 0.1 μM) | > 85
CCOC(=O)N1CCC(N2CCC3(CC2)CN(C(C)=O)c2ccc(-c4ccccc4OC)cc23)CC1 [compound 150] | x (activity was measured to be greater than 1.0 μM) | > 85 | xxx (activity was measured to be less than 0.1 μM) | 65 to 85
CC(=O)N1CC2(CCN(C3CCN(C(=O)OC4CCC4)CC3)CC2)c2cc(C)ccc21 [compound 151] | xxx (activity was measured to be less than 0.1 μM) | > 85 | xxx (activity was measured to be less than 0.1 μM) | > 85
Fc1ccc2c(c1)C1(CCN(C3CCCCC3)CC1)CO2 [compound 152] | x (activity was measured to be greater than 1.0 μM) | > 85 | xx (activity was measured to be between 0.1 μM and 1.0 μM) | 65 to 85
CCOC(=O)N1C2CCC1CC(N1CCC3(CC1)CNc1ccccc13)C2 (centres unmarked) [compound 153] | xxx (activity was measured to be less than 0.1 μM) | > 85 | xxx (activity was measured to be less than 0.1 μM) | > 85
